Measurements published in patent US20180050994A1 (THE JOHNS HOPKINS UNIVERSITY, priority 2013, published 2018).

What was measured:
[1] = target: T1, hNav1.1 (Homo sapiens, UniProt P35498); assay: Two-electrode voltage-clamp recording of hNav1.1 gating in Xenopus oocytes; assay type: cell-based; settings: for effect on hNav1.1 persistent current / effect on hNav1.1 opening (G-V relationship): 100 μM; for effect on hNav1.1 persistent current: analyzed at the end of a 50 ms test pulse; for effect on hNav1.1 opening (G-V relationship): significance at p<0.005; for Activation (V1/2): hNav1.1 + β1 in Xenopus oocytes, ≤1% DMSO, DMSO control −38.2 ± 1.9 mV; for Activation (V1/2) / Inactivation (V1/2): 100 μM drug; for Inactivation (V1/2): hNav1.1, steady-state inactivation, DMSO control −49.4 ± 0.3 mV
T1 construct: host or cells: Xenopus oocytes (cRNA injection)

[2] = system: picrotoxin-induced seizures in male Crl:CF1 mice; assay: Picrotoxin seizure induction; assay type: in vivo, mouse
Procedure: (§1) Animal husbandry and drug administration. Male Crl:CF1 mice (10-12 weeks old, Charles River) were housed under a 12 hour light-dark cycle with free access to food and water and all experiments were carried out between 10 am and 4 pm. 1-[phenyl-methyl]-1H-1,2,3-triazole-4-carboxamide-5-methyl (Compound B) (Sigma Aldrich) was suspended in a 40% solution of cyclodextrin (Sigma Aldrich) in sterile saline (0.9%) and 15 minutes prior to each seizure induction paradigm, 75 mg/kg of compound B was administered via intraperitoneal injection (ip) injection. Vehicle treated animals were similarly administrated 40% cyclodextrin and served as the controls for each experiment. The Emory University Institutional Animal Care and Use Committee approved all experimental protocols involving mice.
Seizure induction paradigms and analyses. Picrotoxin seizure induction—15 minutes prior to i.p. injection of picrotoxin (10 mg/kg, Sigma Aldrich), mice were administered vehicle or compound B (n=12 per group). Latencies to the first myoclonic jerk, forelimb clonus, and generalized tonic-clonic seizure were compared between compound B and vehicle-treated mice. The myoclonic jerk is characterized by a sudden jerk of the upper body whereas forelimb clonus involves rapid movement of the forelimbs for at least 5s. Finally, the generalized tonic-clonic seizure involves the loss of postural control with rapid movement of the limbs for at least 5s.
(§2) Statistical analysis. A Student's t-test was used to identify statistically significant differences in latencies between vehicle- and compound B-treated groups for each seizure phenotype following administration of flurothyl and picrotoxin. […] All data are presented as the mean±s.e.m.; p values<0.05 were considered significant.

[3] = target: T2, hNav1.2 (Homo sapiens, UniProt Q99250); assay: Two-electrode voltage-clamp recording of hNav1.2 gating in Xenopus oocytes; assay type: cell-based; settings: for Activation (V1/2): hNav1.2, 100 μM drug, DMSO control −31.7 ± 1.2 mV; for Inactivation (V1/2): hNav1.2, steady-state inactivation, 100 μM drug, DMSO control −59.7 ± 0.4 mV
T2 construct: host or cells: Xenopus oocytes (cRNA injection)

[4] = system: rat hippocampal neurons; assay: Action potential threshold recordings in hippocampal neurons; assay type: cell-based; settings: 100 μM Compound B
Procedure: Action potential threshold recordings in hippocampal neurons. Hippocampal neurons were dissected from Sprague Dawley rat embryos at embryonic day 18. Cells were treated with papain (Worthington Biochemical), dissociated with a pipette and plated over coverslips coated with collagen (Life Technologies) and poly-D-Lysine (Sigma-Aldrich). Astrocyte beds were prepared at a density of 80,000 cells/ml and cultured in DMEM (Life Technologies) with 10% Fetal Bovine Serum, 6 mM glutamine for 14 days in 5% CO2 at 37° C. Total medium was changed every week. Neurons were plated over confluent astrocyte beds at a density of 150,000 cells/ml and cultured for 3 weeks in Neurobasal media (Life Technologies) supplemented with B27 and 2 mM glutaMAX. Half of the media was changed every 3-4 days. Cells were treated for 3 hours with compound B in 0.3% DMSO or control (media containing 0.3% DMSO) before recording. Coverslips were transferred to a chamber perfused at 2 ml/minute at 32° C. with ACSF containing (in mM): 140 NaCl, 5 KCl, 2 CaCl2, 2 MgCl2, 10 HEPES, and 10 Glucose (pH 7.3 adjusted with NaOH). […] Action potential thresholds were measured by a series of 100 ms, 10 pA depolarizing current injections. At the minimal current injection needed to elicit an action potential, firing threshold was determined by calculating the potential at which the rate of rise crossed 40 V/s, using AxoGraph X software. […]

[5] = system: flurothyl-induced seizures in male Crl:CF1 mice; assay: Flurothyl seizure induction; assay type: in vivo, mouse; settings: 75 mg/kg ip
Procedure: as §1
Flurothyl Seizure induction. Latencies to flurothyl-induced seizures were determined as previously described (Neurobiol Dis 49C, 211-220 (2012)). Briefly, flurothyl (2,2,2-trifluroethylether; Sigma Aldrich) was dispensed at a rate of 20 μl/minute into a Plexiglas chamber and latencies to three behavioral phenotypes were compared between vehicle-treated and compound B-treated (75 mg/kg) mice (n=12 per group): 1) the first myoclonic jerk, 2) a generalized tonic-clonic seizure, and 3) a generalized tonic-clonic seizure with tonic extension. Similar to picrotoxin-mediated seizure induction, the myoclonic jerk is the first observable behavioral phenotype followed by the generalized tonic-clonic seizure which is characterized by a loss of postural control with rapid movement of all four limbs for at least 5s. Lastly, the generalized tonic-clonic seizure with tonic hind limb extension involves the loss of postural control and rapid movement of all four limbs followed by downward extension of the limbs parallel to the body.
as §2

[6] = target: T3, hNav1.3 (Homo sapiens, UniProt Q9NY46); assay: Two-electrode voltage-clamp recording of hNav1.3 gating in Xenopus oocytes; assay type: cell-based; settings: for Activation (V1/2): hNav1.3, 100 μM drug, DMSO control −24.7 ± 1.6 mV; for Inactivation (V1/2): hNav1.3, steady-state inactivation, 100 μM drug, DMSO control −52.8 ± 0.9 mV
T3 construct: host or cells: Xenopus oocytes (cRNA injection)

[7] = system: 6 Hz psychomotor seizures in male Crl:CF1 mice; assay: 6 Hz psychomotor seizure induction; assay type: in vivo, mouse; settings: 17 mA
Procedure: as §1
6 Hz psychomotor seizure induction. Topical anesthetic (0.5% tetracaine hydrochloride ophthalmic solution) was applied to the cornea 30 minutes before testing. Fifteen minutes prior to seizure induction, mice were administrated vehicle or compound B (n=12 per group). Each mouse was manually restrained and corneal stimulation (0.2 ms pulse, 6 Hz, 3s) was performed at a current intensity of 17 mA (ECT Unit 57800; Ugo Basile, Comerio Italy). […] The mice were randomized into two groups and in the first trial one group received the vehicle whereas the other was administered compound B. The second trial was performed one week later with each group receiving the opposite treatment.
as §2

[8] = target: T4, α1/β2/γ2 GABAA receptor (Homo sapiens, UniProt P14867+P18507+P47870); assay: GABAA receptor activation in oocytes; assay type: cell-based; settings: 100 μM, oocytes at −70 mV; 5 μM muscimol as positive control
T4 construct: expressed in transfected cells; host or cells: oocytes
T4 sequence (P14867 28-456): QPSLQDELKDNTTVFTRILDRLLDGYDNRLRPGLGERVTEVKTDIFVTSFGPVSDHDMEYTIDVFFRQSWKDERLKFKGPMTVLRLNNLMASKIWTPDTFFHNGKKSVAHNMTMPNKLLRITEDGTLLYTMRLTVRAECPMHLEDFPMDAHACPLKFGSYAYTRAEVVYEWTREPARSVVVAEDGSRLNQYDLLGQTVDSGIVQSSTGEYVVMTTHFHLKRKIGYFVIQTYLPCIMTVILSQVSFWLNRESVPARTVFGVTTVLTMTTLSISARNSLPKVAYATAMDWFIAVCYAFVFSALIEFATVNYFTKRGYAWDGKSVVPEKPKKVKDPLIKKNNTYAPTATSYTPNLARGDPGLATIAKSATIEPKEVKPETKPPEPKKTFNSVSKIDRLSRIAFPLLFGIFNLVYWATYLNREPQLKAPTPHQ
T4 sequence (P47870 25-512 limits assumed): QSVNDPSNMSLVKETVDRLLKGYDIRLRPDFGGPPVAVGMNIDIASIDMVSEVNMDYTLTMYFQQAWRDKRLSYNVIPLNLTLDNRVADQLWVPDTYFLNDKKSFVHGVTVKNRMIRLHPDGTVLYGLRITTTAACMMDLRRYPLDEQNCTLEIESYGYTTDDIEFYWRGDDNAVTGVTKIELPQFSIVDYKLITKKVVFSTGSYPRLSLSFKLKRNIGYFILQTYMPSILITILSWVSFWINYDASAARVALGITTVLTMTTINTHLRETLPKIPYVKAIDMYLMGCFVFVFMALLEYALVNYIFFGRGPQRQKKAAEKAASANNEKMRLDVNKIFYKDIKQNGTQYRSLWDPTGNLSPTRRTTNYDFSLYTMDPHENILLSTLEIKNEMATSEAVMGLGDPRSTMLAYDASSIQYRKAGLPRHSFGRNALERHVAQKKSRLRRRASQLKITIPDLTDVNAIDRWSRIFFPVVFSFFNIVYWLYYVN
T4 sequence (P18507 40-475): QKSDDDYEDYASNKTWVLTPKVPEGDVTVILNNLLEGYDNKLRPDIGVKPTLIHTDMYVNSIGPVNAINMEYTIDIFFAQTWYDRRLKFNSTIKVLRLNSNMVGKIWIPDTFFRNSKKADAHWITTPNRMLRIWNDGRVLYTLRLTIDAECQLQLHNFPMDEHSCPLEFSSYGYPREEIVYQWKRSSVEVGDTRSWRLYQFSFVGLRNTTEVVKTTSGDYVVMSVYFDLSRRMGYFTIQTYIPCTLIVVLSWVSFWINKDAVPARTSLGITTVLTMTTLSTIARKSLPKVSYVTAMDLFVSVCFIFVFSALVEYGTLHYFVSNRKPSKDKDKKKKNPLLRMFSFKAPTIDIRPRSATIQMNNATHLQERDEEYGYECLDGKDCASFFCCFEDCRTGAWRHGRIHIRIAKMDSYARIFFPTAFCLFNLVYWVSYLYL
Excerpt: Oocytes were kept at −70 mV throughout the experiment.

[9] = target: T5, hNav1.6 (Homo sapiens, UniProt Q9UQD0); assay: Two-electrode voltage-clamp recording of hNav1.6 gating in Xenopus oocytes; assay type: cell-based; settings: for Activation (V1/2): hNav1.6, 100 μM drug, DMSO control −26.7 ± 1.1 mV; for Inactivation (V1/2): hNav1.6, steady-state inactivation, 100 μM drug, DMSO control −65.1 ± 0.8 mV
T5 construct: host or cells: Xenopus oocytes (cRNA injection)

[10] = cited from earlier work

| Structure (SMILES) | effect on hNav1.1 persistent current [1] | effect on hNav1.1 opening (G-V relationship) [1] | Activation (V1/2) [1] [mV] | Inactivation (V1/2) [1] [mV] | Activation (V1/2) [3] [mV] | Inactivation (V1/2) [3] [mV] | Activation (V1/2) [6] [mV] | Inactivation (V1/2) [6] [mV] | activation of α1/β2/γ2 GABAA receptor (inward currents) [8] | Activation (V1/2) [9] [mV] | Inactivation (V1/2) [9] [mV] | further results |
| --- | --- | --- | --- | --- | --- | --- | --- | --- | --- | --- | --- | --- |
| NC(=O)c1nnn(Cc2cccc(F)c2)c1N [Compound A, 1-[(3-fluorophenyl)methyl]-1H-1,2,3-Triazole-4-carboxamide-5-amine] | neither of these compounds influences | clearly inhibit hNav1.1 opening | −30.8 ± 1.0 | −50.5 ± 1.2 | – | – | – | – | – | – | – | – |
| Cc1c(C(N)=O)nnn1Cc1ccccc1 [Compound B, 1-[phenyl-methyl]-1H-1,2,3-Triazole-4-carboxamide-5-methyl] | neither of these compounds influences | clearly inhibit hNav1.1 opening | −27.4 ± 1.0 | −49.4 ± 0.3 | −23.6 ± 1.1 | −53.6 ± 1.2 | −25.8 ± 1.4 | −50.0 ± 0.8 | do not activate | −23.8 ± 1.9 | −62.6 ± 0.7 | average latency to the first generalized tonic-clonic seizure (GTCS) ([2]; picrotoxin 10 mg/kg, Compound B 75 mg/kg ip 15 min before, vehicle 1006±106 s): 1693 ± 315 s; frequency of the behavioral seizures vs vehicle ([2]; picrotoxin, 75 mg/kg ip): no difference; increase of average latency to first GTCS vs vehicle ([2]; picrotoxin, 75 mg/kg ip, p=0.03): 41%; average latency to forelimb clonus (FC) vs vehicle ([2]; picrotoxin, 75 mg/kg ip, p=0.3): no statistically significant differences; average latency to the first myoclonic jerk (MJ) vs vehicle ([2]; picrotoxin, 75 mg/kg ip, p=0.4): no statistically significant differences; average action potential (firing) threshold ([4]; potential at which rate of rise crosses 40 V/s, control −43.3±2.4 mV): −27.8±1.6 mV; current injection needed to elicit an action potential ([4]; control 20 pA): 80 pA; increase of average latency to GTCS+ vs vehicle ([5]; p<0.0001): 56%; increase of average latency to first GTCS vs vehicle ([5]; p<0.0001): 43%; average latency to the MJ vs vehicle ([5]; p=0.6): comparable; average latency to the first GTCS ([5]; vehicle 281±19 s): 652 ± 48 s; average latency to GTCS with hind limb extension (GTCS+) ([5]; vehicle 652±38 s): 1155 ± 89 s; animals exhibiting behavioral seizures ([7]; 75 mg/kg ip, n=7/24, vehicle 92%): 29%; seizure severity (modified Racine scale) vs vehicle ([7]; p<0.0001): dramatically less severe; reduction in the number of mice exhibiting seizures ([7]; vs vehicle, p<0.0001): 63%; effect on hNav1.1 persistent current ([1]; listed as compound B): did not alter; depolarizing shift in channel activation voltage ([1]; hNav1.1, 100 μM): ~+11 mV; Entry into SI (t) ([1]; hNav1.1 slow inactivation, time-dependence of entry, DMSO 5.6 ± 0.3 s): 5.5 ± 0.4 s; Voltage-dependence of SI (V), V1/2 ([1]; hNav1.1 slow inactivation, DMSO −43.7 ± 1.6 mV): −43.2 ± 1.3 mV |
| OCc1cn(Cc2cccc(F)c2)nn1 [Compound C, 1-[(3-fluorophenyl)methyl]-1H-1,2,3-Triazole-4-hydroxymethyl] | – | no longer affects hNav1.1 opening | −38.4 ± 1.3 | −49.2 ± 0.6 | – | – | – | – | – | – | – | – |
| NC(=O)c1nnn(Cc2ccc(F)cc2)c1N [Compound D, 1-[(4-fluorophenyl)methyl]-1H-1,2,3-Triazole-4-carboxamide-5-amine] | – | not significant | −32.5 ± 2.3 | −49.8 ± 1.6 | – | – | – | – | – | – | – | – |
| NC(=O)c1cn(Cc2c(F)cccc2F)nn1 [Rufinamide, 1-[(2,6-difluorophenyl)methyl]-1H-1,2,3-Triazole-4-carboxamide, reference compound] | did not alter | dramatic depolarizing shift | −30.6 ± 0.9 | – | −29.5 ± 1.2 | −57.7 ± 0.5 | −24.5 ± 2.4 | −52.6 ± 1.6 | do not activate | −28.1 ± 0.8 | −60.0 ± 0.7 | solubility in DMSO ([10]; DMSO): up to 9 mg/ml; solubility in water ([10]; water): slightly soluble; alteration of the midpoint of hNav1.6 channel availability ([9]; hNav1.6, 100 μM rufinamide): about +5 mV |
